According to PubChem BioAssay AID248 (DTP/NCI, 2004):
Where “and” joins values, the source holds several entries; their conditions need not be identical. Equal values may be shown once. Inconclusive results and toxic doses are left out.

Tested on: L1210 leukemia ip in BDF1 mice, survival T/C
Experiment: NCI In Vivo Anticancer Drug Screen. Data for tumor model L1210 Leukemia (intraperitoneal) in B6D2F1 (BDF1) mice
Conditions: endpoint: mean survival time, higher = longer survival
Outline: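 Read-out is survival time, reported as the treated-group measurement over the vehicle-control measurement.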

[1] = dose: 100.0 mg/kg/injection, schedule: Q01DX009 (ip), vehicle: Klucel (hydroxypropylcellulose) (HPC)
[2] = dose: 200.0 mg/kg/injection, schedule: Q01DX009 (ip), vehicle: Klucel (hydroxypropylcellulose) (HPC)
[3] = dose: 400.0 mg/kg/injection, schedule: Q01DX009 (ip), vehicle: Klucel (hydroxypropylcellulose) (HPC)
[4] = dose: 100.0 mg/kg/injection, schedule: Q04DX003 (ip), vehicle: Klucel (hydroxypropylcellulose) (HPC)
[5] = dose: 200.0 mg/kg/injection, schedule: Q04DX003 (ip), vehicle: Klucel (hydroxypropylcellulose) (HPC)
[6] = dose: 400.0 mg/kg/injection, schedule: Q04DX003 (ip), vehicle: Klucel (hydroxypropylcellulose) (HPC)
[7] = dose: 50.0 mg/kg/injection, schedule: Q04DX003 (ip), vehicle: Klucel (hydroxypropylcellulose) (HPC)
[8] = dose: 12.5 mg/kg/injection, schedule: Q01DX009 (ip), vehicle: Klucel (hydroxypropylcellulose) (HPC)
[9] = dose: 25.0 mg/kg/injection, schedule: Q01DX009 (ip), vehicle: Klucel (hydroxypropylcellulose) (HPC)
[10] = dose: 25.0 mg/kg/injection, schedule: Q04DX003 (ip), vehicle: Klucel (hydroxypropylcellulose) (HPC)
[11] = dose: 50.0 mg/kg/injection, schedule: Q01DX009 (ip), vehicle: Klucel (hydroxypropylcellulose) (HPC)
[12] = dose: 50.0 mg/kg/injection, schedule: Q04DX002 (ip), vehicle: Klucel (hydroxypropylcellulose) (HPC)
[13] = dose: 100.0 mg/kg/injection, schedule: Q04DX002 (ip), vehicle: Klucel (hydroxypropylcellulose) (HPC)
[14] = dose: 200.0 mg/kg/injection, schedule: Q04DX002 (ip), vehicle: Klucel (hydroxypropylcellulose) (HPC)
[15] = dose: 100.0 mg/kg/injection, schedule: Q01DX009 (ip), vehicle: saline
[16] = dose: 200.0 mg/kg/injection, schedule: Q01DX009 (ip), vehicle: saline

With O=C(O)c1ccc(N=Cc2c(Cl)cccc2Cl)cc1 the T/C [1] was 104 % of control, the T/C [2] was 101 % of control and the T/C [3] was 104 % of control.

In the case of FC(F)(Cl)c1nc2nc(Cl)c(Cl)nc2[nH]1, the T/C (dose: 50.0 mg/kg/injection, schedule: Q01DX009 (ip), vehicle: other) was 96 % of control, the T/C (dose: 100.0 mg/kg/injection, schedule: Q01DX009 (ip), vehicle: other) was 122 % of control and the T/C (dose: 100.0 mg/kg/injection, schedule: Q04DX003 (ip), vehicle: other) was 114 % of control. The T/C (dose: 200.0 mg/kg/injection, schedule: Q04DX003 (ip), vehicle: other) was 123 % of control and the T/C (dose: 400.0 mg/kg/injection, schedule: Q04DX003 (ip), vehicle: other) was 96 % of control.

In the case of CCOC(=O)C(Cc1ccc(Cl)c(Cl)c1)(NC(C)=O)C(=O)OCC, the T/C (dose: 50.0 mg/kg/injection, schedule: Q04DX003 (ip), vehicle: saline with Tween-80) was 102 % of control, the T/C (dose: 100.0 mg/kg/injection, schedule: Q04DX003 (ip), vehicle: saline with Tween-80) was 94 % of control and the T/C (dose: 200.0 mg/kg/injection, schedule: Q04DX003 (ip), vehicle: saline with Tween-80) was 96 % of control.

O=C1c2ccccc2C(=O)N1CC(O)COc1ccc(Cl)cc1 (configuration not stated) was tested, and the T/C [4] was 92 % of control, the T/C [5] was 92 % of control and the T/C [6] was 91 % of control.

In the case of O=C(CCl)Nc1ccc(SSc2ccc(NC(=O)CCl)cc2)cc1, the T/C [7] was 95 % of control, the T/C [4] was 101 % of control and the T/C [5] was 101 % of control.

For CC(=O)Nc1cc(N)cc(NC(C)=O)c1, the T/C (dose: 50.0 mg/kg/injection, schedule: Q01DX009 (ip), vehicle: water) was 91 % of control, the T/C (dose: 100.0 mg/kg/injection, schedule: Q01DX009 (ip), vehicle: water) was 103 % of control and 107 % of control and the T/C (dose: 100.0 mg/kg/injection, schedule: Q04DX003 (ip), vehicle: water) was 100 % of control. The T/C (dose: 200.0 mg/kg/injection, schedule: Q01DX009 (ip), vehicle: water) was 102 % of control and 103 % of control, the T/C (dose: 200.0 mg/kg/injection, schedule: Q04DX003 (ip), vehicle: water) was 98 % of control and the T/C (dose: 400.0 mg/kg/injection, schedule: Q01DX009 (ip), vehicle: water) was 93 % of control.

O=C1C(=Cc2ccc([N+](=O)[O-])cc2)C(=O)c2ccccc21 was tested, and the T/C [8] was 93 % of control, the T/C (dose: 12.5 mg/kg/injection, schedule: Q04DX003 (ip), vehicle: Klucel (hydroxypropylcellulose) (HPC)) was 97 % of control and the T/C [9] was 88 % of control. The T/C [10] was 90 % of control, the T/C [11] was 98 % of control and the T/C [7] was 93 % of control.

In the case of O=C(COc1cccc(Cl)c1Cl)NCc1ccc(Cl)cc1, the T/C (dose: 100.0 mg/kg/injection, schedule: Q01DX009 (ip), vehicle: saline with Tween-80) was 100 % of control, the T/C (dose: 200.0 mg/kg/injection, schedule: Q01DX009 (ip), vehicle: saline with Tween-80) was 97 % of control and the T/C (dose: 400.0 mg/kg/injection, schedule: Q01DX009 (ip), vehicle: saline with Tween-80) was 96 % of control.

With Cc1ccc(S(=O)(=O)OCC(COS(=O)(=O)c2ccc(C)cc2)(COS(=O)(=O)c2ccc(C)cc2)COS(=O)(=O)c2ccc(C)cc2)cc1 the T/C [12] was 97 % of control, the T/C [13] was 93 % of control and 105 % of control and the T/C [14] was 102 % of control. The T/C (dose: 400.0 mg/kg/injection, schedule: Q04DX002 (ip), vehicle: Klucel (hydroxypropylcellulose) (HPC)) was 110 % of control.

For NS(=O)(=O)c1ccc(N=Nc2ncc(CC(NC3=CC(=O)C(=O)c4ccccc43)C(=O)O)[nH]2)cc1 (configuration not stated), the T/C (dose: 50.0 mg/kg/injection, schedule: Q01DX009 (ip), vehicle: saline) was 96 % of control, the T/C [15] was 96 % of control and the T/C [16] was 105 % of control.

CCCCS(=O)(=O)Nc1ccc(Nc2c3ccccc3nc3ccccc23)c(OC)c1 was tested, and the T/C (dose: 12.5 mg/kg/injection, schedule: Q01DX009 (ip), vehicle: saline) was 150 % of control, the T/C (dose: 25.0 mg/kg/injection, schedule: Q01DX009 (ip), vehicle: saline) was 153 % of control and the T/C [11] was 154 % of control.

CC(=O)OCC1OC(OC2=C(c3ccccc3)C(=O)C(OC3OC(COC(C)=O)C(OC(C)=O)C(OC(C)=O)C3OC(C)=O)=C(c3ccccc3)C2=O)C(OC(C)=O)C(OC(C)=O)C1OC(C)=O (configuration not stated) was tested, and the T/C (dose: 100.0 mg/kg/injection, schedule: Q04DX002 (ip), vehicle: saline with Tween-80) was 91 % of control, the T/C (dose: 200.0 mg/kg/injection, schedule: Q04DX002 (ip), vehicle: saline with Tween-80) was 91 % of control and the T/C (dose: 400.0 mg/kg/injection, schedule: Q04DX002 (ip), vehicle: saline with Tween-80) was 95 % of control.

With O=Nc1ccc(O)cc1 the T/C [9] was 96 % of control, the T/C (dose: 25.0 mg/kg/injection, schedule: Q04DX002 (ip), vehicle: Klucel (hydroxypropylcellulose) (HPC)) was 104 % of control and the T/C [10] was 102 % of control. The T/C [11] was 102 % of control and 103 % of control, the T/C [12] was 100 % of control and the T/C [7] was 98 % of control. The T/C [1] was 112 % of control and 123 % of control, the T/C [13] was 104 % of control and the T/C [4] was 100 % of control. The T/C [2] was 100 % of control and 110 % of control, the T/C [14] was 103 % of control and the T/C [5] was 104 % of control.

For CN(C)CCOC(=O)c1cccc(CCBr)c1, the T/C (dose: 87.5 mg/kg/injection, schedule: Q01DX009 (ip), vehicle: saline) was 103 % of control, the T/C (dose: 175.0 mg/kg/injection, schedule: Q01DX009 (ip), vehicle: saline) was 92 % of control and the T/C (dose: 350.0 mg/kg/injection, schedule: Q01DX009 (ip), vehicle: saline) was 104 % of control.

For C[N+](C)(C)C(=Nc1ccccc1)c1ccccc1, the T/C [8] was 100 % of control, the T/C [9] was 96 % of control and the T/C [10] was 108 % of control. The T/C [11] was 100 % of control and 105 % of control, the T/C [7] was 94 % of control and the T/C [4] was 100 % of control.

With N#CC(/C=C/c1ccccc1)Nc1ccccc1N (configuration not stated) the T/C (dose: 100.0 mg/kg/injection, schedule: Q01DX001 (ip), vehicle: saline with Tween-80) was 91 % of control, the T/C (dose: 200.0 mg/kg/injection, schedule: Q01DX001 (ip), vehicle: saline with Tween-80) was 94 % of control and the T/C (dose: 400.0 mg/kg/injection, schedule: Q01DX001 (ip), vehicle: saline with Tween-80) was 86 % of control.

In the case of O=C(Nc1ccccc1F)OCC1CC2C=CC1C2 (configuration not stated), the T/C [1] was 101 % of control, the T/C [2] was 104 % of control and the T/C [3] was 93 % of control.

In the case of Clc1ccc(C2=Nc3cccc4cccc(c34)N2)cc1Cl, the T/C (dose: 15.0 mg/kg/injection, schedule: Q01DX Z (ip), vehicle: saline) was 97 % of control, the T/C (dose: 30.0 mg/kg/injection, schedule: Q01DX Z (ip), vehicle: saline) was 105 % of control and the T/C (dose: 60.0 mg/kg/injection, schedule: Q01DX Z (ip), vehicle: saline) was 100 % of control. The T/C (dose: 60.0 mg/kg/injection, schedule: Q01DX Z (oral), vehicle: saline) was 91 % of control, the T/C (dose: 120.0 mg/kg/injection, schedule: Q01DX Z (oral), vehicle: saline) was 96 % of control and the T/C (dose: 240.0 mg/kg/injection, schedule: Q01DX Z (oral), vehicle: saline) was 94 % of control. The T/C (dose: 480.0 mg/kg/injection, schedule: Q01DX Z (oral), vehicle: saline) was 98 % of control.

For Cc1ccc(C(=O)C2CC2c2ccccc2)cc1 (configuration not stated), the T/C [4] was 101 % of control, the T/C [5] was 101 % of control and the T/C [6] was 95 % of control.

For CN(C)[C@@H]1C(=O)C(C(=O)NCNCCCC(=O)O)=C(O)[C@@]2(O)C(=O)C3=C(O)c4c(O)cccc4[C@@](C)(O)[C@H]3C[C@@H]12, the T/C [15] was 103 % of control, the T/C (dose: 100.0 mg/kg/injection, schedule: Q04DX003 (ip), vehicle: saline) was 105 % of control and the T/C [16] was 102 % of control. The T/C (dose: 200.0 mg/kg/injection, schedule: Q04DX003 (ip), vehicle: saline) was 96 % of control, the T/C (dose: 400.0 mg/kg/injection, schedule: Q01DX009 (ip), vehicle: saline) was 94 % of control and the T/C (dose: 400.0 mg/kg/injection, schedule: Q04DX003 (ip), vehicle: saline) was 96 % of control.

With NC(=O)N/N=C1/CC2C3C=CC4C3CC2C14 (configuration not stated) the T/C (dose: 37.5 mg/kg/injection, schedule: Q04DX002 (ip), vehicle: saline with Tween-80) was 117 % of control, the T/C (dose: 75.0 mg/kg/injection, schedule: Q04DX002 (ip), vehicle: saline with Tween-80) was 102 % of control and the T/C (dose: 150.0 mg/kg/injection, schedule: Q04DX002 (ip), vehicle: saline with Tween-80) was 106 % of control. For the same molecule, the T/C (dose: 300.0 mg/kg/injection, schedule: Q04DX002 (ip), vehicle: saline with Tween-80) was 98 % of control.
